Measurements reported in patent publication US11505547B2, “Compounds” (STEP PHARMA S.A.S., priority 2017, dated 2022).

target: T1, human CTPS1 (Homo sapiens, UniProt P17812); experiment: RapidFire/MS-based enzyme selectivity assay, human CTPS1; format: biochemical; settings: RapidFire/MS IC50s, human CTPS1 versus CTPS2
T1 construct: purchased Proteros biostructures GmbH
T1 sequence (P17812 1-591): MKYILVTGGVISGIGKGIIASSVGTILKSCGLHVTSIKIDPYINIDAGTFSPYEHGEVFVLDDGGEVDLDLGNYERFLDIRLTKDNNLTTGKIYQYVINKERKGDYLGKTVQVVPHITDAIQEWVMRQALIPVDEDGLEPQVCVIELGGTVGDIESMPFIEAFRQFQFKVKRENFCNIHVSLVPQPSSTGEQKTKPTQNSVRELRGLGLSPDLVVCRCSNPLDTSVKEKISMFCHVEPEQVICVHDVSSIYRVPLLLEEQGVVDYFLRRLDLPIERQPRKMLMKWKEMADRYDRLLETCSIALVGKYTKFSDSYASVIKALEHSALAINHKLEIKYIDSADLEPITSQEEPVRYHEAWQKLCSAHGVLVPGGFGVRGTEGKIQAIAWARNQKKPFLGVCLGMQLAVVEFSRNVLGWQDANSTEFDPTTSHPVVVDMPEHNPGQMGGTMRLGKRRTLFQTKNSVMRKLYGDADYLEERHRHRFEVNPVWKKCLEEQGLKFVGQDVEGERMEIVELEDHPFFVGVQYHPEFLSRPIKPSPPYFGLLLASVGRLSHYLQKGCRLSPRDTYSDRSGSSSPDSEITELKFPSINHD
Protocol: Biological Example 2—RapidFire/MS-Based Enzyme Selectivity Assays
Human CTPS1 Versus CTPS2 Selectivity Assessment by RapidFire/MS Analysis.
The enzyme inhibitory activities against each target isoform of interest were determined for the compounds of the invention using an optimised RapidFire high-throughput mass spectrometry (RF/MS) assay format. RF/MS assays for both human CTPS1 and CTPS2 were performed in assay buffer consisting of 50 mM HEPES (Merck), 20 mM MgCl2, 5 mM KCl, 1 mM DTT, 0.01% Tween-20, pH to 8.0 accordingly. All reagents were from Sigma-Aldrich unless specified otherwise. Human full-length active C-terminal FLAG-His-tag CTPS1 (UniProtKB-P17812, CTPS[1-591]-[…]) was obtained from Proteros biostructures GmbH. Human full length active C-terminal FLAG-His-Avi tagged CTPS2 (UniProtKB-Q9NRF8, CTPS2 [1-586]-[…]) was obtained from Harker Bio.
Human CTPS (1 or 2) protein was prepared in 1× assay buffer to the final working protein concentration required for the reaction. A 2 uL volume per well of 2×CTPS (1 or 2) protein was mixed with 40 nL of compound using acoustic (ECHO) delivery and incubated for 10 minutes at 25° C. Each isoform enzymatic reaction was subsequently initiated by addition of 2 uL per well of a 2× substrate mix in assay buffer. For hCTPS1: ATP (0.3 mM), UTP (0.2 mM), GTP (0.07 mM) and L-glutamine (0.1 mM). For hCTPS2: ATP (0.1 mM), UTP (0.04 mM), GTP (0.03 mM) and L-glutamine (0.1 mM). Each mixture was incubated for an appropriate amount of time per isoform within the determined linear phase of the reaction at 25° C. A 60 uL volume of stop solution (1% formic acid with 0.5 uM ^13C9-^15N3-CTP in H2O) was added and the plate immediately heat-sealed and centrifuged for 10 minutes at 4,000 rpm. Following centrifugation, plates were loaded onto the Agilent RapidFire microfluidic solid phase extraction system coupled to an API4000 triple quadrupole mass spectrometer (RF/MS) for analysis.
In all cases, the enzyme converts UTP to CTP. […] Readout for data analysis was calculated as the ratio between the peak area of the product CTP and the internal standard ^13C9-^15N3-CTP. […]
(R=ratio/readout, P=product signal area, IS=internal standard signal area) […]
(I=Inhibition, Rneg=median of negative control readout values, Rpos=median of positive control readout values, Rsample=sample readout value)
Percentage inhibition was then plotted against compound concentration, and the 50% inhibitory concentration ([…]) was determined from the resultant concentration-response curve.
Fold selectivity between CTPS1 and CTPS2 was subsequently calculated according to the following equation: […]

Row | SMILES | Selectivity (fold selectivity between CTPS1 and CTPS2)
1 | CCOc1cncc(-c2ccc(C(=O)NC(CCOC)c3csc(NS(=O)(=O)C4CC4)n3)c(F)c2)n1 (single isomer, unassigned) [Example R93, N-(1-(2-(cyclopropanesulfonamido)thiazol-4-yl)-3-methoxypropyl)-4-(6-ethoxypyrazin-2-yl)-2-fluorobenzamide] | +++ (>60 fold (+++))

target: T1, human CTPS1; experiment: Human CTPS1 enzyme inhibition, ADP-Glo Max assay; format: biochemical; settings: human full length CTPS1, read-out: CTPS1 (Human CTPS1 Enzyme Inhibition data grouped by potency range, IC50)
In short: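 Full-length C-terminal FLAG-His-tagged protein in 50 mM Tris pH 8.0, 10 mM MgCl2, 0.01% Tween-20 and 2 mM L-cysteine, preincubated with compound for 10 min at 25 °C. The substrate mix held ATP 0.31 mM, GTP 0.034 mM, UTP 0.48 mM and L-glutamine 0.186 mM, and the reaction ran within its linear phase. ADP was read by ADP-Glo Max luminescence; IC50 from the % inhibition curve.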

Row | IC50 | SMILES
2 | 100 to 1000 nM | CCOc1cncc(-c2ccc(C(=O)NC(CC)c3csc(NS(=O)(=O)C4CC4)n3)c(F)c2)n1 (racemic) [Example R62, N-(1-(2-(cyclopropanesulfonamido)thiazol-4-yl)propyl)-4-(6-ethoxypyrazin-2-yl)-2-fluorobenzamide]
3 | < 100 nM | CCC(NC(=O)c1ccc(-c2cncc(Cl)n2)cc1)c1csc(NS(=O)(=O)C2CC2)n1 (racemic) [Example R65, 4-(6-chloropyrazin-2-yl)-N-(1-(2-(cyclopropanesulfonamido)thiazol-4-yl)propyl)benzamide]
4 | 1000 to 10000 nM | COc1cc(-c2cncc(C#N)n2)ccc1C(=O)NC(C)(C)c1csc(NS(=O)(=O)C2CC2)n1 [Example R50, 4-(6-cyanopyrazin-2-yl)-N-(2-(2-(cyclopropanesulfonamido)thiazol-4-yl)propan-2-yl)-2-methoxybenzamide]
5 | < 100 nM | CC(C)(NC(=O)c1ccc(-c2cncc(Cl)n2)cc1)c1csc(NS(=O)(=O)C2CC2)n1 [Example R52, 4-(6-chloropyrazin-2-yl)-N-(2-(2-(cyclopropanesulfonamido)thiazol-4-yl)propan-2-yl)benzamide]
6 | 100 to 1000 nM | O=C(NC1(c2csc(NS(=O)(=O)C3CC3)n2)CC1)c1ccc(-c2cccnc2)cc1 [Example R81, N-(1-(2-(cyclopropanesulfonamido)thiazol-4-yl)cyclopropyl)-4-(pyridin-3-yl)benzamide]
7 | < 100 nM | CCOc1cncc(-c2ccc(C(=O)NC(CCOC)c3csc(NS(=O)(=O)C4CC4)n3)cc2)n1 (centres unmarked) [Example R90, N-(1-(2-(cyclopropanesulfonamido)thiazol-4-yl)-3-methoxypropyl)-4-(6-ethoxypyrazin-2-yl)benzamide]
8 | 100 to 1000 nM | CCOc1cncc(-c2ccc(C(=O)NC(CC)c3csc(NS(=O)(=O)C4CC4)n3)c(F)c2)n1 (single isomer, unassigned) [Example R70, N-(1-(2-(cyclopropanesulfonamido)thiazol-4-yl)propyl)-4-(6-ethoxypyrazin-2-yl)-2-fluorobenzamide]

More lines, now with the values behind:

Row | SMILES | IC50
9 | O=C(NCc1csc(NS(=O)(=O)C2CC2)n1)c1ccc(-c2cncc(C(F)(F)F)n2)cc1 [Example R12, N-((2-(cyclopropanesulfonamido)thiazol-4-yl)methyl)-4-(6-(trifluoromethyl)pyrazin-2-yl)benzamide] | < 100 nM
10 | CC(C)(NC(=O)c1ccc(-c2cncc(Cl)n2)cn1)c1csc(NS(=O)(=O)C2CC2)n1 [Example R25, 5-(6-chloropyrazin-2-yl)-N-(2-(2-(cyclopropanesulfonamido)thiazol-4-yl)propan-2-yl)picolinamide] | 100 to 1000 nM
11 | Cc1cc(-c2cncc(C(F)(F)F)n2)ccc1C(=O)NC(C)(C)c1csc(NS(=O)(=O)C2CC2)n1 [Example R45, N-(2-(2-(cyclopropanesulfonamido)thiazol-4-yl)propan-2-yl)-2-methyl-4-(6-(trifluoromethyl)pyrazin-2-yl)benzamide] | 100 to 1000 nM
12 | CCC(CC)(NC(=O)c1ccc(-c2cncc(C)c2)cc1)c1csc(NS(=O)(=O)C2CC2)n1 [Example R17, N-(3-(2-(cyclopropanesulfonamido)thiazol-4-yl)pentan-3-yl)-4-(5-methylpyridin-3-yl)benzamide] | 100 to 1000 nM
13 | CCOc1cncc(-c2ccc(C(=O)NCc3csc(NS(=O)(=O)C4CC4)n3)c(F)c2)n1 [Example R11, N-((2-(cyclopropanesuIfonamido)thiazol-4-yl)methyl)-4-(6-ethoxypyrazin-2-yl)-2-fluorobenzamide] | < 100 nM
14 | COc1cc(-c2cncc(Cl)n2)ccc1C(=O)NC(C)(C)c1csc(NS(=O)(=O)C2CC2)n1 [Example R49, 4-(6-chloropyrazin-2-yl)-N-(2-(2-(cyclopropanesulfonamido)thiazol-4-yl)propan-2-yl)-2-methoxybenzamide] | 100 to 1000 nM
15 | O=C(NCc1csc(NS(=O)(=O)C2CC2)n1)c1ccc(-c2ccccc2)cn1 [Example R8, N-((2-(cyclopropanesulfonamido)thiazol-4-yl)methyl)-5-phenylpicolinamide] | 1000 to 10000 nM
16 | CC(C)(NC(=O)c1ccc(-c2cccnc2)cc1)c1csc(NS(=O)(=O)C2CC2)n1 [Example R39, N-(2-(2-(cyclopropanesulfonamido)thiazol-4-yl)propan-2-yl)-4-(pyridin-3-yl)benzamide] | 100 to 1000 nM
17 | CC(C)(NC(=O)c1ccc(-c2cncc(C(F)(F)F)c2)cc1)c1csc(NS(=O)(=O)C2CC2)n1 [Example R35, N-(2-(2-(cyclopropanesulfonamido)thiazol-4-yl)propan-2-yl)-4-(5-(trifluoromethyl)pyridin-3-yl)benzamide] | < 100 nM
18 | CCC(CC)(NC(=O)c1ccc(-c2cncc(Cl)n2)cc1)c1csc(NS(=O)(=O)C2CC2)n1 [Example R20, 4-(6-chloropyrazin-2-yl)-N-(3-(2-(cyclopropanesulfonamido)thiazol-4-yl)pentan-3-yl)benzamide] | < 100 nM
19 | CCOc1cncc(-c2ccc(C(=O)NC(C)(C)c3csc(NS(=O)(=O)C4CC4)n3)c(C(F)(F)F)c2)n1 [Example R47, N-(2-(2-(cyclopropanesuIfonamido)thiazol-4-yl)propan-2-yl)-4-(6-ethoxypyrazin-2-yl)-2-(trifluoromethyl)benzamide] | 100 to 1000 nM
20 | CCC(CC)(NC(=O)c1ccc(-c2cnccn2)cc1)c1csc(NS(=O)(=O)C2CC2)n1 [Example R22, N-(3-(2-(cyclopropanesulfonamido)thiazol-4-yl)pentan-3-yl)-4-(pyrazin-2-yl)benzamide] | 100 to 1000 nM
21 | CCC(CC)(NC(=O)c1ccc(-c2cncc(F)c2)cc1)c1csc(NS(=O)(=O)C2CC2)n1 [Example R16, N-(3-(2-(cyclopropanesulfonamido)thiazol-4-yl)pentan-3-yl)-4-(5-fluoropyridin-3-yl)benzamide] | 100 to 1000 nM
22 | CCOc1cncc(-c2ccc(C(=O)NC(C)(C)c3csc(NS(=O)(=O)C4CC4)n3)c(OC)c2)n1 [Example R7, N-(2-(2-(cyclopropanesulfonamido)thiazol-4-yl)propan-2-yl)-4-(6-ethoxypyrazin-2-yl)-2-methoxybenzamide] | 100 to 1000 nM
23 | COc1cc(-c2cncc(C(F)(F)F)n2)ccc1C(=O)NC(C)(C)c1csc(NS(=O)(=O)C2CC2)n1 [Example R48, N-(2-(2-(cyclopropanesuIfonamido)thiazol-4-yl)propan-2-yl)-2-methoxy-4-(6-(trifluoromethyl)pyrazin-2-yl)benzamide] | 100 to 1000 nM
